From PubChem BioAssay AID1259334 (Broad Institute, 2017)
Active and inactive are the calls of the source. Cut-off read from the data, not from the text of the source: active = AC50 below about 11 µM.

What follows are compounds tested on B cell line, TNFa signaling counterscreen reporter (assay: TNFa signaling inhibitors in B cell line, dose response, counter-screen (AID 1259334);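 note: cells stimulated with TNFa after compound preincubation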).

Structure (SMILES) | AC50
CCC(=O)O[C@]1(C(=O)CCl)[C@@H](C)C[C@H]2[C@@H]3CCC4=CC(=O)C=C[C@]4(C)[C@@]3(F)[C@@H](O)C[C@@]21C | > 20 µM (inactive)
CCCC(=O)NC1=C(Cl)C(=O)c2ccccc2C1=O | 0.712 µM
c1cc(-c2cnn3cc(-c4ccc(OCCN5CCCCC5)cc4)cnc23)ccn1 | 1.13 µM
C1CCC(C(CC2CCCCN2)C2CCCCC2)CC1 (stereo not given) | 2.75 µM
CC(C)c1ccc(NC(=O)Nc2nc(C(N)COCc3ccccc3)cs2)cc1 (stereo not given) | 1.78 µM
CC(C)=CCc1c2c(c3occ(-c4ccc(O)c(O)c4)c(=O)c3c1O)C=CC(C)(C)O2 | 8.15 µM
N#Cc1c(Br)n(C2OC(CO)C(O)C2O)c2ncnc(N)c12 (stereo not given) | 1.16 µM
C[n+]1c2n(c3ccccc31)N=C(c1ccc(-c3ccccc3)cc1)CS2 | 1.25 µM
NC(c1csc(NC(=O)Nc2cccc(Cl)c2)n1)c1ccccc1Cl (stereo not given) | 7.41 µM
C[C@@H]1CN([C@@H](C)CO)C(=O)c2c(c3ccccc3n2C)-c2ccccc2CO[C@H]1CN(C)Cc1ccccc1 | 5.53 µM
O=C(C1CC1)N1C[C@@H]2N[C@H](C1)[C@@H]2c1ccc(-c2ccncc2)cc1 | 5 µM
CCCCCCCCCc1ccc(OCCOCCOCCOCCOCCOCCOCCOCCOCCO)cc1 | 4.58 µM
CC(NCC(O)COCCC12CC3CC(CC(C3)C1)C2)c1ccccc1 (stereo not given) | 4.1 µM
N#CC(C#N)=NNc1ccc(OC(F)(F)F)cc1 | 7.15 µM
O=C(Nc1cccc(N2C(=O)C=CC2=O)c1)c1cccs1 | 1.22 µM
COc1ccc(CNCCC(c2ccc(F)cc2)c2ccc(OC(C)C)cc2)cc1OC (stereo not given) | 3.5 µM
CC[C@@]1(O)C(=O)OCc2c1cc1n(c2=O)Cc2cc3ccccc3nc2-1 | 0.531 µM
N#C[C@@H]1[C@H](c2ccc(C#Cc3ccccc3F)cc2)[C@@H](CO)N1C(=O)C1CC1 | 3.39 µM
COc1cccc(/C=N/Nc2ccc(C(=O)O)cc2)c1O | 2.02 µM
CC1CC(C)CC(C)C(O)C(C#N)=CC=CCC(C2CCCC2C(=O)O)OC(=O)CC(O)C(C)C1 (stereo not given) | < 0.0005 µM
CC(=O)OC1CC2(O)C3CCC4CC(O)CCC4(C)C3CCC2(C)C1C1=CC(=O)OC1 (stereo not given) | 0.839 µM
COc1ccc(/C=C2/CCC(CN3CCOCC3)C2=O)cc1 (stereo not given) | 2.69 µM

Structure (SMILES) | AC50
c1ccc2nc(-c3nc4ccccc4o3)ccc2c1 | 6.02 µM
C[C@@H]1CN([C@@H](C)CO)C(=O)c2c(c3ccccc3n2C)-c2ccccc2CO[C@H]1CN(C)S(=O)(=O)c1ccc([N+](=O)[O-])cc1 | > 20 µM (inactive)
O=C(CCN1CCC(c2ccccc2)C1)c1ccc2c(c1)OCCO2 (stereo not given) | 6.18 µM
C=C1CC(Cn2cc(Br)c(=O)[nH]c2=O)(c2ccc(-c3ccccc3)cc2)OC1=O (stereo not given) | 1.07 µM
O=S(=O)(CCSc1ccccn1)c1nc2ccccc2s1 | 5.13 µM
CN(C)c1ccc(C(=C2C=CC(=[N+](C)C)C=C2)c2ccc(N(C)C)cc2)cc1 | 0.099 µM
O=C1NC2c3c(I)sc(I)c3C(=O)C2O1 (stereo not given) | 3.87 µM
COc1c(-c2coc3cc4c(cc3c2=O)CC(O)C(C)(C)O4)ccc2c1C=CC(C)(C)O2 (stereo not given) | 11 µM
C[n+]1c(-c2ccccc2)cc2c(=Cc3ccc([N+](=O)[O-])cc3)c3ccccc3n21 | 2.96 µM
CCCn1c(NC(=O)c2cccc(S(=O)(=O)N3CCCC3)c2)nc2ccccc21 | 2.61 µM
Cc1nc(C)c(C(=O)Nc2ncc([N+](=O)[O-])s2)o1 | 8.61 µM
CC(=O)O[C@H]1C[C@H](O[C@H]2[C@@H](O)C[C@H](O[C@H]3[C@@H](O)C[C@H](O[C@H]4CC[C@@]5(C)C(CCC6C5C[C@@H](O)[C@]5(C)[C@@H](C7=CC(=O)OC7)CC[C@]65O)C4)O[C@@H]3C)O[C@@H]2C)O[C@H](C)[C@H]1O[C@@H]1O[C@H](CO)[C@@H](O)[C@H](O)[C@H]1O (stereo not given in full) | 1.01 µM
CO[C@@H](CN(C)S(=O)(=O)c1ccc(Cl)cc1)[C@H](C)CN(Cc1ccccc1Cl)[C@@H](C)CO | > 20 µM (inactive)
COc1ccc2c3c(n(C)c2c1)[C@@H](CO)N(C(=O)Nc1ccc(F)cc1)CC31CN(Cc2ccccc2F)C1 | > 20 µM (inactive)
C[C@H](CO)N1C[C@H](C)[C@@H](CN(C)Cc2ccc(Oc3ccccc3)cc2)OCc2ccccc2-c2ccccc2C1=O | 7.02 µM
CC1=CC(C)(C)N=C(Nc2nc(C)c3cc(C)cc(C)c3n2)N1 | 2.49 µM
O=C1C(O)CC2c3ccccc3CC3(CCCC3)N12 (stereo not given) | > 20 µM (inactive)
COc1ccc(C#Cc2ccc([C@H]3[C@@H](CO)N4CCCCN(S(=O)(=O)c5cn(C)cn5)C[C@H]34)cc2)cc1 | 8.82 µM
N#C[C@@H]1[C@H](c2ccc(C#Cc3ccccc3F)cc2)[C@@H](CO)N1C(=O)c1cccnc1 | 6.76 µM
C[C@H](CO)N1C[C@H](C)[C@H](CN(C)S(=O)(=O)c2ccc([N+](=O)[O-])cc2)OCc2ccccc2-c2c(n(C)c3ccccc23)C1=O | 9.88 µM
C[C@@H]1CN([C@H](C)CO)C(=O)c2c(c3ccccc3n2C)-c2ccccc2CO[C@@H]1CN(C)C(=O)c1cc(Cl)cc(Cl)c1 | 8.14 µM
C[C@@H]1CN([C@H](C)CO)C(=O)c2ccccc2-c2ccccc2CO[C@@H]1CN(C)Cc1ccccc1C(F)(F)F | 10.7 µM

Structure (SMILES) | AC50
COc1cc(/C=N/n2cnnc2)ccc1OC(=O)c1ccncc1 | 8.26 µM
COc1ccc(/C=C/C(=O)Nc2ccccc2C(=O)O)cc1OC | 8.81 µM
CCC1=C(CC2NCCc3ccccc32)CC2c3cc(OC)c(OC)cc3CCN2C1 (stereo not given) | 1.19 µM
COc1cc(C(C)C)c2c(c1)S(=O)(=O)N(COc1cc(=O)n3cccc(OCCN4CCCCC4)c3n1)C2=O | 3.4 µM
COc1ccc2c3c([nH]c2c1)[C@H](CO)N(C(=O)Nc1ccc(F)cc1)CC31CN(Cc2cc(F)ccc2F)C1 | > 20 µM (inactive)
C[C@H]1CN([C@@H](C)CO)C(=O)Cc2cc(NC(=O)Cc3cn(C)c4ccccc34)ccc2O[C@H]1CN(C)Cc1ccc(C(F)(F)F)cc1 | > 20 µM (inactive)
O=C(Nc1ccccc1)N1CC(=O)N2[C@H](CO)[C@@H](c3ccc(C#CC4CCCCC4)cc3)[C@H]2C1 | 11.5 µM
CC1CNCCN1S(=O)(=O)c1cccc2cnccc12 (stereo not given) | 7.79 µM
CCCNC(=O)N1[C@H](C#N)[C@H](c2ccc(C#Cc3cccc(F)c3)cc2)[C@H]1CO | 8.92 µM
OC(c1cc(-c2cccc(Cl)c2)nc2ccccc12)C1CCCCN1 (stereo not given) | 2.26 µM
O=C(c1nnsc1S(=O)(=O)c1ccc(Cl)cc1)N1CCOCC1 | 2.07 µM
CN(C)c1ccc(C=c2c3cc(O)ccc3n3c2cc(-c2ccccc2)[n+]3C)cc1 | 2.46 µM
N#C[C@@H]1[C@H](c2ccc(C#Cc3ccc(F)cc3)cc2)[C@@H](CO)N1C(=O)C1CCC1 | 10.7 µM
CC(=O)OCC(=O)C1(O)CCC2C3CCC4=CC(=O)CCC4(C)C3(Cl)C(O)CC21C (stereo not given) | > 20 µM (inactive)
C[C@@H]1CN([C@H](C)CO)C(=O)c2c(c3ccccc3n2C)-c2ccccc2CO[C@H]1CN(C)C(=O)c1cc(Cl)cc(Cl)c1 | > 20 µM (inactive)
COC1=CC(=O)c2c(ccc3ncnc(N)c23)C1=O | 0.98 µM
c1ccc(-c2nnc(-c3ccccn3)nn2)nc1 | 11.4 µM
C[C@@H]1CN([C@@H](C)CO)C(=O)Cc2cc(NS(=O)(=O)c3ccc(F)cc3)ccc2O[C@H]1CN(C)Cc1ccc(C(F)(F)F)cc1 | 5.36 µM
N#Cc1cccc(-c2ccc(C3[C@H]4CNC[C@@H]3N4Cc3ccc4c(c3)OCO4)cc2)c1 (stereo not given in full) | 6.32 µM
Cc1ccc(N2CC(C(=O)Nc3nccs3)CC2=O)cc1Cl (stereo not given) | 8.13 µM
N#C[C@H]1[C@H](c2ccc(C#Cc3ccccc3F)cc2)[C@H](CO)N1C(=O)C1CC1 | 11.3 µM
